In ChEMBL document CHEMBL1154535, “3-Hydroxyisoquinolines as inhibitors of HCV NS5b RNA-dependent RNA polymerase” (Bioorg Med Chem Lett, 2009):
Converted amounts (≈) assume the structure as drawn.

Experiments:
Hepatitis C virus [1] = experiment: Antiviral activity against HCV 1b in Huh-7/2209-23 cells by replicon assay; format: functional, organism-based, Hepacivirus hominis; conditions: genotype 1b
[2] = Aqueous solubility of compound; format: physicochemical; conditions: buffer
Hepatitis C virus [3] = experiment: Inhibition of HCV 1b NS5B polymerase; set-up: species or system Hepatitis C virus subtype 1b

IC50 (Hepatitis C virus [1])	solubility [2]	IC50 (Hepatitis C virus [3])	SMILES
75 nM	7 µg/mL (≈ 13.7 µM)	410 nM	O=c1ccc(-c2cccc3c2S(=O)(=O)N=C3c2nc(Cc3ccc(F)cc3)c3ccccc3c2O)c[nH]1
430 nM	2 µg/mL (≈ 4.42 µM)	580 nM	O=S1(=O)N=C(c2nc(Cc3ccc(F)cc3)c3ccccc3c2O)c2cccc(Cl)c21
780 nM	–	720 nM	O=S1(=O)N=C(c2nc(Cc3ccc(F)cc3)c3ccccc3c2O)c2cccc(-c3cn[nH]c3)c21
2700 nM	10 µg/mL (≈ 26.4 µM)	1000 nM	O=S1(=O)N=C(c2nc(CCC3CC3)c3ccccc3c2O)c2ccccc21
800 nM	41 µg/mL (≈ 82.9 µM)	3900 nM	O=S1(=O)N=C(c2nc(Cc3ccc(F)cc3)c3ccccc3c2O)c2cccc(-c3ccccc3)c21
1100 nM	3 µg/mL (≈ 5.88 µM)	350 nM	O=S1(=O)N=C(c2nc(Cc3ccc(F)cc3)c3ccccc3c2O)c2cccc(-c3cccc(O)c3)c21
940 nM	17 µg/mL (≈ 30.8 µM)	530 nM	CC(=O)Nc1cccc(-c2cccc3c2S(=O)(=O)N=C3c2nc(Cc3ccc(F)cc3)c3ccccc3c2O)c1
380 nM	9 µg/mL (≈ 18.1 µM)	1800 nM	O=S1(=O)N=C(c2nc(Cc3ccc(F)cc3)c3ccccc3c2O)c2cccc(-c3cncnc3)c21
–	–	4500 nM	CC(C)CCc1nc(C2=NS(=O)(=O)c3ccccc32)c(O)c2ccccc12
760 nM	40 µg/mL (≈ 89.2 µM)	610 nM	COc1cccc2c1S(=O)(=O)N=C2c1nc(Cc2ccc(F)cc2)c2ccccc2c1O
440 nM	16 µg/mL (≈ 38.2 µM)	–	O=S1(=O)N=C(c2nc(Cc3ccc(F)cc3)c3ccccc3c2O)c2ccccc21
–	–	51000 nM	CC(C)CCc1nc(C2=NS(=O)(=O)c3ccccc3N2)c(O)c2ccccc12
–	–	47000 nM	O=S1(=O)N=C(c2nc(Cc3ccccc3)c3ccccc3c2O)Nc2ccccc21
400 nM	6 µg/mL (≈ 11.7 µM)	730 nM	O=c1cccc(-c2cccc3c2S(=O)(=O)N=C3c2nc(Cc3ccc(F)cc3)c3ccccc3c2O)[nH]1
150 nM	3 µg/mL (≈ 6.05 µM)	550 nM	O=S1(=O)N=C(c2nc(Cc3ccc(F)cc3)c3ccccc3c2O)c2cccc(-c3cccnc3)c21
